How the values were obtained:
[1] = Stability study for Fesoterodine Fumarate (description, water by KF, related substances by HPLC on storage); format: physicochemical
Experimental: As used herein, the term “stable fesoterodine fumarate” fesoterodine fumarate containing any individual impurities less than 0.15% after exposure to a relative humidity of 60% at 25° for a period of at least three months or after exposure to a relative humidity of 75% at 40° for a period of at least three months
2) High Performance Liquid Chromatography (HPLC) Method for Determination of Impurity X in Fesoterodine Fumarate of formula (1)
• Equipment: Shimadzu LC2010C HPLC system equipped with a wavelength UV-VIS detector or equivalent. • Column: Inertsil ODS-3 (250 mm×4.6 mm, 5 μm), Make: GL Sciences Part No: 5020-01732 • Flow rate: 1.2 mL/minute • Column oven temp: 30° C. • Wavelength: 220 nm • Injection volume: 10 μL • Run time: 60 minutes • Diluent: Premixed buffer and acetonitrile in the volume ratio of 75:25. Preparation of Buffer:
Transfer 1 mL orthophosphoric acid in 1000 mL volumetric flask containing about 500 mL of water and make up the volume with water. Filter through 0.2 μm membrane filter paper.
Weigh accurately and transfer about 25 mg of sample of Fesoterodine Fumarate or Fesoterodine Fumarate (technical) into a 50 mL volumetric flask. Add 5 mL tetrahydrofuran, sonicate to dissolve and make up the volume with diluent. Make fresh two preparations at the time of injection.
Inject sample solutions containing the chromatogram upto the end of gradient. Determine the area of each impurity using suitable integrator.

[2] = Particle Size Distribution (PSD) by laser diffraction in a Malvern Master Sizer; format: physicochemical
Experimental: Particle Size Distribution (PSD)” is determined by laser diffraction in a Malvern Master Sizer by using known method.

[3] = 1 Month 2 to 8° C., PSD: D(90) = 10 microns
[4] = 1 Month 2 to 8° C., PSD: D(90) = 270 microns
[5] = 1 Month 25° C. ± 2° C./RH 60% ± 5%, PSD: D(90) = 10 microns
[6] = 1 Month 25° C. ± 2° C./RH 60% ± 5%, PSD: D(90) = 270 microns
[7] = 1 Month 40° C. ± 2° C./RH 75% ± 5%, PSD: D(90) = 10 microns
[8] = 1 Month 40° C. ± 2° C./RH 75% ± 5%, PSD: D(90) = 270 microns
[9] = 2 Months 2 to 8° C., PSD: D(90) = 10 microns
[10] = 2 Months 2 to 8° C., PSD: D(90) = 270 microns
[11] = 2 Months 25° C. ± 2° C./RH 60% ± 5%, PSD: D(90) = 270 microns
[12] = 2 Months 25° C. ± 2° C./RH, PSD: D(90) = 10 microns
[13] = 2 Months 40° C. ± 2° C./RH 75% ± 5%, PSD: D(90) = 10 microns
[14] = 2 Months 40° C. ± 2° C./RH 75% ± 5%, PSD: D(90) = 270 microns
[15] = 3 Months 2 to 8° C., PSD: D(90) = 10 microns
[16] = 3 Months 2 to 8° C., PSD: D(90) = 270 microns
[17] = 3 Months 25° C. ± 2° C./RH 60% ± 5%, PSD: D(90) = 10 microns
[18] = 3 Months 25° C. ± 2° C./RH 60% ± 5%, PSD: D(90) = 270 microns
[19] = 3 Months 40° C. ± 2° C./RH 75% ± 5%, PSD: D(90) = 10 microns
[20] = 3 Months 40° C. ± 2° C./RH 75% ± 5%, PSD: D(90) = 270 microns
[21] = Initial, PSD: D(90) = 10 microns
[22] = Initial, PSD: D(90) = 270 microns

Description [1, 3]: White
Related substance (by HPLC) i) Diol [1, 3]: 0.06 % w/w
Related substance (by HPLC) ii) Diester [1, 3]: 0.03 % w/w
Related substance (by HPLC) iii) Oxidized (RRT 1.37) [1, 3]: 0.09 % w/w
Related substance (by HPLC) iv) Any individual impurities [1, 3]: 0.03 % w/w
Related substance (by HPLC) v) Total impurities [1, 3]: 0.21 % w/w
Water by KF [1, 3]: 0.16 % w/w
Description [1, 4]: White
Related substance i) Diol [1, 4]: 0.05%
Related substance ii) Diester [1, 4]: BQL
Related substance iii) Oxidized (RRT 1.37) [1, 4]: BQL
Related substance iv) Any individual impurities [1, 4]: BQL
Related substance v) Total impurities [1, 4]: 0.05%
Water by KF [1, 4]: 0.16 % w/w
Description [1, 5]: White
Related substance (by HPLC) i) Diol [1, 5]: 0.09 % w/w
Related substance (by HPLC) ii) Diester [1, 5]: BQL
Related substance (by HPLC) iii) Oxidized (RRT 1.37) [1, 5]: 0.15 % w/w
Related substance (by HPLC) iv) Any individual impurities [1, 5]: 0.02 % w/w
Related substance (by HPLC) v) Total impurities [1, 5]: 0.26 % w/w
Water by KF [1, 5]: 0.15 % w/w
Description [1, 6]: White
Related substance i) Diol [1, 6]: 0.05%
Related substance ii) Diester [1, 6]: BQL
Related substance iii) Oxidized (RRT 1.37) [1, 6]: BQL
Related substance iv) Any individual impurities [1, 6]: BQL
Related substance v) Total impurities [1, 6]: 0.05%
Water by KF [1, 6]: 0.15 % w/w
Description [1, 7]: White
Related substance (by HPLC) i) Diol [1, 7]: 0.07 % w/w
Related substance (by HPLC) ii) Diester [1, 7]: BQL
Related substance (by HPLC) iii) Oxidized (RRT 1.37) [1, 7]: 0.17 % w/w
Related substance (by HPLC) iv) Any individual impurities [1, 7]: 0.02 % w/w
Related substance (by HPLC) v) Total impurities [1, 7]: 0.28 % w/w
Water by KF [1, 7]: 0.12 % w/w
Description [1, 8]: White
Related substance i) Diol [1, 8]: 0.33%
Related substance ii) Diester [1, 8]: 0.04%
Related substance iii) Oxidized (RRT 1.37) [1, 8]: 0.06%
Related substance iv) Any individual impurities [1, 8]: 0.06%
Related substance v) Total impurities [1, 8]: 0.59%
Water by KF [1, 8]: 0.56 % w/w
Description [1, 9]: White
Related substance (by HPLC) i) Diol [1, 9]: 0.06 % w/w
Related substance (by HPLC) ii) Diester [1, 9]: BQL
Related substance (by HPLC) iii) Oxidized (RRT 1.37) [1, 9]: 0.09 % w/w
Related substance (by HPLC) iv) Any individual impurities [1, 9]: 0.03 % w/w
Related substance (by HPLC) v) Total impurities [1, 9]: 0.21 % w/w
Water by KF [1, 9]: 0.16 % w/w
Description [1, 10]: White
Related substance i) Diol [1, 10]: 0.06%
Related substance ii) Diester [1, 10]: BQL
Related substance iii) Oxidized (RRT 1.37) [1, 10]: BQL
Related substance iv) Any individual impurities [1, 10]: BQL
Related substance v) Total impurities [1, 10]: 0.06%
Water by KF [1, 10]: 0.16 % w/w
Description [1, 11]: White
Related substance i) Diol [1, 11]: 0.04%
Related substance ii) Diester [1, 11]: BQL
Related substance iii) Oxidized (RRT 1.37) [1, 11]: BQL
Related substance iv) Any individual impurities [1, 11]: BQL
Related substance v) Total impurities [1, 11]: 0.04%
Water by KF [1, 11]: 0.15 % w/w
Description [1, 12]: White
Related substance (by HPLC) i) Diol [1, 12]: 0.09 % w/w
Related substance (by HPLC) ii) Diester [1, 12]: BQL
Related substance (by HPLC) iii) Oxidized (RRT 1.37) [1, 12]: 0.17 % w/w
Related substance (by HPLC) iv) Any individual impurities [1, 12]: 0.02 % w/w
Related substance (by HPLC) v) Total impurities [1, 12]: 0.26 % w/w
Water by KF [1, 12]: 0.15 % w/w
Description [1, 13]: White
Related substance (by HPLC) i) Diol [1, 13]: 0.07 % w/w
Related substance (by HPLC) ii) Diester [1, 13]: BQL
Related substance (by HPLC) iii) Oxidized (RRT 1.37) [1, 13]: 0.27 % w/w
Related substance (by HPLC) iv) Any individual impurities [1, 13]: 0.04 % w/w
Related substance (by HPLC) v) Total impurities [1, 13]: 0.49 % w/w
Water by KF [1, 13]: 0.12 % w/w
Description [1, 14]: White
Related substance i) Diol [1, 14]: 0.5%
Related substance ii) Diester [1, 14]: 0.05%
Related substance iii) Oxidized (RRT 1.37) [1, 14]: 0.05%
Related substance iv) Any individual impurities [1, 14]: 0.07%
Related substance v) Total impurities [1, 14]: 0.22%
Water by KF [1, 14]: 0.2 % w/w
Description [1, 15]: White
Related substance (by HPLC) i) Diol [1, 15]: 0.06 % w/w
Related substance (by HPLC) ii) Diester [1, 15]: 0.03 % w/w
Related substance (by HPLC) iii) Oxidized (RRT 1.37) [1, 15]: 0.08 % w/w
Related substance (by HPLC) iv) Any individual impurities [1, 15]: 0.03 % w/w
Related substance (by HPLC) v) Total impurities [1, 15]: 0.21 % w/w
Water by KF [1, 15]: 0.16 % w/w
Description [1, 16]: White
Related substance i) Diol [1, 16]: 0.06%
Related substance ii) Diester [1, 16]: BQL
Related substance iii) Oxidized (RRT 1.37) [1, 16]: BQL
Related substance iv) Any individual impurities [1, 16]: BQL
Related substance v) Total impurities [1, 16]: 0.06%
Water by KF [1, 16]: 0.16 % w/w
Description [1, 17]: White
Related substance (by HPLC) i) Diol [1, 17]: 0.09 % w/w
Related substance (by HPLC) ii) Diester [1, 17]: BQL
Related substance (by HPLC) iii) Oxidized (RRT 1.37) [1, 17]: 0.19 % w/w
Related substance (by HPLC) iv) Any individual impurities [1, 17]: 0.02 % w/w
Related substance (by HPLC) v) Total impurities [1, 17]: 0.26 % w/w
Water by KF [1, 17]: 0.16 % w/w
Description [1, 18]: White
Related substance i) Diol [1, 18]: 0.06%
Related substance ii) Diester [1, 18]: BQL
Related substance iii) Oxidized (RRT 1.37) [1, 18]: BQL
Related substance iv) Any individual impurities [1, 18]: BQL
Related substance v) Total impurities [1, 18]: 0.06%
Water by KF [1, 18]: 0.16 % w/w
Description [1, 19]: White
Related substance (by HPLC) i) Diol [1, 19]: 0.07 % w/w
Related substance (by HPLC) ii) Diester [1, 19]: BQL
Related substance (by HPLC) iii) Oxidized (RRT 1.37) [1, 19]: 0.29 % w/w
Related substance (by HPLC) iv) Any individual impurities [1, 19]: 0.04 % w/w
Related substance (by HPLC) v) Total impurities [1, 19]: 0.49 % w/w
Water by KF [1, 19]: 0.12 % w/w
Description [1, 20]: White
Related substance i) Diol [1, 20]: 0.6%
Related substance ii) Diester [1, 20]: 0.06%
Related substance iii) Oxidized (RRT 1.37) [1, 20]: 0.06%
Related substance iv) Any individual impurities [1, 20]: 0.04%
Related substance v) Total impurities [1, 20]: 0.22%
Water by KF [1, 20]: 0.12 % w/w
Description [1, 21]: White
Related substance (by HPLC) i) Diol [1, 21]: 0.06 % w/w
Related substance (by HPLC) ii) Diester [1, 21]: 0.02 % w/w
Related substance (by HPLC) iii) Oxidized (RRT 1.37) [1, 21]: 0.05 % w/w
Related substance (by HPLC) iv) Any individual impurities [1, 21]: 0.02 % w/w
Related substance (by HPLC) v) Total impurities [1, 21]: 0.15 % w/w
Water by KF [1, 21]: 0.2 % w/w
Description [1, 22]: White
Related substance i) Diol [1, 22]: 0.1%
Related substance ii) Diester [1, 22]: 0.05%
Related substance iii) Oxidized (RRT 1.37) [1, 22]: 0.06%
Related substance iv) Any individual impurities [1, 22]: 0.02%
Related substance v) Total impurities [1, 22]: 0.21%
Water by KF [1, 22]: 0.33 % w/w
degradation of fesoterodine under stress conditions ([1]; fesoterodine fumarate with higher particle size): significantly slow down the degradation
PSD: D(90) ([2]; batch from IPA/diisopropyl ether, D(90) less than 200 microns): PSD: D(90) = 10 microns
PSD: D(90) ([2]; batch of Example 16 (methyl ethyl ketone/cyclohexane, seeded), D(90) higher than 200 microns): PSD: D(90) = 270 microns
Structure (SMILES): CC(C)C(=O)Oc1ccc(CO)cc1[C@H](CCN(C(C)C)C(C)C)c1ccccc1.O=C(O)/C=C/C(=O)O [Fesoterodine Fumarate, isobutyric acid 2-[(R)-3-diisopropylammonium-1-phenylpropyl)-4-(hydroxy-methyl)phenyl ester hydrogen fumarate]

From US9012678B2, “Processes for the preparation of fesoterodine” (Cadila Healthcare Limited, priority 2010, dated 2015)
